What was measured:
SK-MEL-2 = assay: Antiproliferative activity, CCK-8, SK-MEL-2; assay type: cell-based; settings: SK-MEL-2, Melanoma; read-out: Cytotoxicity (IC50 μM)
Method: (§1) The tumor cells used were purchased from commercial cell banks (HCT116 purchased from ATCC, SKM 1 purchased from JCRB). The growth inhibition of cells was detected using the CCK-8 method. The specific steps were as follows. Cells in the logarithmic growth phase were seeded into a 96 well culture plate at an appropriate density, with 90 μL/well. After overnight cultivation, different concentrations of drugs were added for treatment for 72 h, with each concentration in triplicate, and corresponding concentration of vehicle control and cell-free blank wells were also set. After the treatment, 10 μL of CCK-8 was added to each well and the plate was incubated in an incubator for 2-4 hours, and the optical density (OD value) at a wavelength of 450 nm was measured using a SpectraMax 190 microplate reader. […] The experiment was repeated twice, and the mean value and SD were calculated.
(§2) The testing method for antiproliferative activity was the same as that mentioned in Pharmacological Experiment Example 2, and the results are shown in Table 4 and FIGS. 2-3.

OCI-AML3 = assay: Antiproliferative activity, CCK-8, OCI-AML3; assay type: cell-based; settings: OCI-AML3, Human acute myeloid leukemia; read-out: Cytotoxicity (IC50 μM)
Method: as §1, §2

KARPAS-1106P = assay: Antiproliferative activity, CCK-8, KARPAS-1106P; assay type: cell-based; settings: Primary mediastinal large B-cell lymphoma, read-out: Cytotoxicity (IC50 μM)
Method: as §1, §2

[1] = tested on: human myelodysplastic syndrome cells SKM-1 transplanted tumor; assay: SKM-1 NOD/SCID mice transplanted tumor model; assay type: in vivo; settings: oral 60 mg/kg qd, 18 days
SKM-1 cells = assay: Antiproliferative activity, CCK-8, SKM-1; assay type: cell-based, human; settings: 72 h
Method: as §1
With reference to HCT-116 cell proliferation inhibition test method, the inhibitory activity of the compounds on the proliferation of human myelodysplastic syndrome cell SKM-1 was tested.

MO-91 = assay: Antiproliferative activity, CCK-8, MO-91; assay type: cell-based; settings: MO-91, Acute myeloid leukemia; read-out: Cytotoxicity (IC50 μM)
Method: as §1, §2

HCT-116 cells = assay: Antiproliferative activity, CCK-8, HCT-116; assay type: cell-based, human; settings: 72 h
Method: as §1

HDAC3 = HDAC3 (Homo sapiens (Human), UniProt O15379); assay: HDAC subtype inhibitory activity (HTRF), HDAC3; assay type: biochemical
Method: (§3) Human recombinant HDAC family proteins with His and GST tags were expressed using insect baculovirus expression system, and a biologically active HDAC family recombinant protein was obtained through Ni affinity column protein purification. HTRF detection method was used with H3(1-21) K9Ac biotin as the substrate. […] Briefly, 20 μl of the activity testing system included the HDAC substrate (0.2 μM. 4 μl), the Human Recombinant Protein HDAC (2-5 ng)/μl.

SK-BR-3 = assay: Antiproliferative activity, CCK-8, SK-BR-3; assay type: cell-based; settings: SK-BR-3, Breast cancer; read-out: Cytotoxicity (IC50 μM)
Method: as §1, §2

KMS-11 = assay: Antiproliferative activity, CCK-8, KMS-11; assay type: cell-based; settings: KMS-11, Human multiple myeloma; read-out: Cytotoxicity (IC50 μM)
Method: as §1, §2

NCI-H929 = assay: Antiproliferative activity, CCK-8, NCI-H929; assay type: cell-based; settings: NCI-H929, Human multiple myeloma; read-out: Cytotoxicity (IC50 μM)
Method: as §1, §2

SNU-5 = assay: Antiproliferative activity, CCK-8, SNU-5; assay type: cell-based; settings: SNU-5, Gastric cancer; read-out: Cytotoxicity (IC50 μM)
Method: as §1, §2

OCI-LY-3 = assay: Antiproliferative activity, CCK-8, OCI-LY-3; assay type: cell-based; settings: OCI-LY-3, Diffuse large B-cell lymphoma; read-out: Cytotoxicity (IC50 μM)
Method: as §1, §2

OCI-LY-10 = assay: Antiproliferative activity, CCK-8, OCI-LY-10; assay type: cell-based; settings: OCI-LY-10, Diffuse large B-cell lymphoma; read-out: Cytotoxicity (IC50 μM)
Method: as §1, §2

KG-1 = assay: Antiproliferative activity, CCK-8, KG-1; assay type: cell-based; settings: KG-1, Acute myeloid leukemia; read-out: Cytotoxicity (IC50 μM)
Method: as §1, §2

HuT78 = assay: Antiproliferative activity, CCK-8, HuT78; assay type: cell-based; settings: HuT78, Human T-lymphocytic leukemia; read-out: Cytotoxicity (IC50 μM)
Method: as §1, §2

CAKI-1 = assay: Antiproliferative activity, CCK-8, CAKI-1; assay type: cell-based; settings: CAKI-1, Renal cell carcinoma; read-out: Cytotoxicity (IC50 μM)
Method: as §1, §2

HDAC2 = HDAC2 (Homo sapiens (Human), UniProt Q92769); assay: HDAC subtype inhibitory activity (HTRF), HDAC2; assay type: biochemical
Method: as §3

TMD8 = assay: Antiproliferative activity, CCK-8, TMD8; assay type: cell-based; settings: TMD8, Diffuse large B-cell lymphoma; read-out: Cytotoxicity (IC50 μM)
Method: as §1, §2

A2058 = assay: Antiproliferative activity, CCK-8, A2058; assay type: cell-based; settings: A2058, Melanoma; read-out: Cytotoxicity (IC50 μM)
Method: as §1, §2

HDAC10 = HDAC10 (Homo sapiens (Human), UniProt Q969S8); assay: HDAC subtype inhibitory activity (HTRF), HDAC10; assay type: biochemical
Method: as §3

MOLP-8 = assay: Antiproliferative activity, CCK-8, MOLP-8; assay type: cell-based; settings: MOLP-8, Human multiple myeloma; read-out: Cytotoxicity (IC50 μM)
Method: as §1, §2

WILL-2 = assay: Antiproliferative activity, CCK-8, WILL-2; assay type: cell-based; settings: WILL-2, Diffuse large B-cell lymphoma; read-out: Cytotoxicity (IC50 μM)
Method: as §1, §2

HDAC1 = HDAC1 (Homo sapiens (Human), UniProt Q13547); assay: In vitro histone deacetylase activity assay (HTRF), HDAC1; assay type: biochemical; settings: H3(1-21) K9Ac biotin substrate
Method: as §3

WILL-1 = assay: Antiproliferative activity, CCK-8, WILL-1; assay type: cell-based; settings: WILL-1, Diffuse large B-cell lymphoma; read-out: Cytotoxicity (IC50 μM)
Method: as §1, §2

HDAC3, sequence (O15379 whole entry): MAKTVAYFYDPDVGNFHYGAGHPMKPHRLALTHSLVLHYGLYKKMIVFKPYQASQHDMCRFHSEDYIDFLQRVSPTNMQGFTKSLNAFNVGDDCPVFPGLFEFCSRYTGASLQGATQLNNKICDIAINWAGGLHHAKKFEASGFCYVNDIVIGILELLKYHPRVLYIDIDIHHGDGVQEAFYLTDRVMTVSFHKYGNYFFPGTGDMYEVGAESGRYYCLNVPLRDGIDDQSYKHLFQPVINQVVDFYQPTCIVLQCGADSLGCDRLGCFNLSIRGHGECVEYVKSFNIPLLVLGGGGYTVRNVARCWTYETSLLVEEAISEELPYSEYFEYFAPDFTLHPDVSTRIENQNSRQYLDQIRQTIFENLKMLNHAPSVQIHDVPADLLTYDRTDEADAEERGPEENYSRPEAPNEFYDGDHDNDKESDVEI
HDAC3, sequence (Q9Y618 395-489 partner): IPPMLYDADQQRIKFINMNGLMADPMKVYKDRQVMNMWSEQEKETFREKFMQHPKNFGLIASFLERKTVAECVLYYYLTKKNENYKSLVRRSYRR
HDAC10, sequence (Q969S8 whole entry): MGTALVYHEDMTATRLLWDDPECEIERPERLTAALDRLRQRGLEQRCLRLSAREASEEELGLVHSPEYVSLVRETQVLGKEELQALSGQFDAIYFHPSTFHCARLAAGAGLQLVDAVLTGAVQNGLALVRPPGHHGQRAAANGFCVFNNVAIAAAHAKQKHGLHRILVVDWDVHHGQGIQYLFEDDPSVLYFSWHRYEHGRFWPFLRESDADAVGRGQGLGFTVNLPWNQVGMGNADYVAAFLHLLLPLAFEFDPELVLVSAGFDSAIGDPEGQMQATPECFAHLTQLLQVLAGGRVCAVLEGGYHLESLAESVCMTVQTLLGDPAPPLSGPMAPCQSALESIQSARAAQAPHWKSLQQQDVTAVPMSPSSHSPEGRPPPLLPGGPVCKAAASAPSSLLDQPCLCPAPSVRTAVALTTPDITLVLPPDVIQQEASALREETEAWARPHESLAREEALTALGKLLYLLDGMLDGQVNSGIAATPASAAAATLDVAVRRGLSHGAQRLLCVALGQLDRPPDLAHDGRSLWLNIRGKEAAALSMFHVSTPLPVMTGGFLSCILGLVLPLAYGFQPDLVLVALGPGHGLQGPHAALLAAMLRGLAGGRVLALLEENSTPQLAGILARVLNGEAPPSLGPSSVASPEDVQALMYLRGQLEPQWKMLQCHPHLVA
HDAC1, sequence (Q13547 whole entry): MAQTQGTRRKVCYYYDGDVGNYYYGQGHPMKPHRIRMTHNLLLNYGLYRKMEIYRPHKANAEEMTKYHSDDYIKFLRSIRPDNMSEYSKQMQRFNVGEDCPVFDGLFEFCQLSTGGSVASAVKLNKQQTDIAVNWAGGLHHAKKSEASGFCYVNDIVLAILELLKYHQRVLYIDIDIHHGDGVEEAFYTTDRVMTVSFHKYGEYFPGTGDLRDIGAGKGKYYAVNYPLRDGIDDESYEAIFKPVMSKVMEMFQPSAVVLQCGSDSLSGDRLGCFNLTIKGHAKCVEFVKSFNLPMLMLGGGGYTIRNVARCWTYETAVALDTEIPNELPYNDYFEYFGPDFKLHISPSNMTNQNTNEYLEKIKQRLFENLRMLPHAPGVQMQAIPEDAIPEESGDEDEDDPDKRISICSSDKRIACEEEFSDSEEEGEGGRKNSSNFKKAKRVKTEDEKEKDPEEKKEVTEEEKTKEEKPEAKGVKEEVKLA
HDAC2, sequence (Q92769 whole entry): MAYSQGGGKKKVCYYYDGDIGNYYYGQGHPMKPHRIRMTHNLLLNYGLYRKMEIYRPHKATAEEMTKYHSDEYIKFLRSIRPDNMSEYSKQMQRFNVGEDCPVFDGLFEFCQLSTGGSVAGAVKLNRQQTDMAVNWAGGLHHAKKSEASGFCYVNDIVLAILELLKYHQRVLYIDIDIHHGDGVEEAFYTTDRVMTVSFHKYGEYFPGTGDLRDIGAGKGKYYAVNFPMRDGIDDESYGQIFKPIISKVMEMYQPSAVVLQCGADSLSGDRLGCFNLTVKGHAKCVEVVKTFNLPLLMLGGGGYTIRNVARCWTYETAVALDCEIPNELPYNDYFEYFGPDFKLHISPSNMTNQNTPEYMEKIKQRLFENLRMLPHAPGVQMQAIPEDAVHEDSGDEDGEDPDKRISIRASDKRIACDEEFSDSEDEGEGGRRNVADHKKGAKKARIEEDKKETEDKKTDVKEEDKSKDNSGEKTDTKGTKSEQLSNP

IC50 (SKM-1 cells): 140 ± 8 nM | IC50 (HCT-116 cells): 220 ± 4 nM | IC50 (HDAC3): 420 ± 105 nM | IC50 (HDAC2): 90 ± 6 nM | IC50 (HDAC10): > 100000 nM | IC50 (HDAC1): 57.6 ± 4.42 nM
Compound: C[C@@H](c1ccc(C(=O)Nc2ccc(F)cc2N)cc1)n1nc(-c2ccc(CN(C)C)cc2)ccc1=O [Compound I-1]
IC50 (SK-MEL-2): 0.799 ± 0.042 µM | IC50 (OCI-AML3): 0.121 ± 0.003 µM | IC50 (KARPAS-1106P): 0.498 ± 0.009 µM | relative tumor proliferation rate (T/C) [1]: 11.78% | IC50 (MO-91): 0.427 ± 0.163 µM | IC50 (SK-BR-3): 0.72 ± 0.032 µM | IC50 (KMS-11): 0.671 ± 0.01 µM | IC50 (NCI-H929): 0.642 ± 0.025 µM | IC50 (SNU-5): 0.314 ± 0.011 µM | IC50 (OCI-LY-3): 0.198 ± 0.048 µM | IC50 (OCI-LY-10): 0.297 ± 0.042 µM | IC50 (KG-1): 0.95 ± 0.066 µM | IC50 (HuT78): 0.769 ± 0.461 µM | IC50 (CAKI-1): 0.594 ± 0.011 µM | IC50 (TMD8): 0.807 ± 0.142 µM | IC50 (A2058): 0.562 ± 0.011 µM | IC50 (MOLP-8): 0.632 ± 0.066 µM | IC50 (WILL-2): 0.347 ± 0.217 µM | IC50 (WILL-1): 0.116 ± 0.006 µM

From patent publication US20240150300A1, “S-CONFIGURATION-CONTAINING AMINO BENZAMIDE PYRIDAZINONE COMPOUND, PREPARATION METHOD THEREFOR, AND PHARMACEUTICAL COMPOSITION AND APPLICATION THEREOF” (SHANGHAI INSTITUTE OF MATERIA MEDICA, CHINESE ACADEMY OF …, priority 2021, published 2024)
